Test results as given in patent US8481732B2 (Incyte Corporation, priority 2009, dated 2013).

The compounds below were run against T1, histamine H4 receptor (Homo sapiens, UniProt Q9H3N8) (assay: H4 Membrane Binding Assay (3H-Histamine displacement)). Details: membranes of recombinant HEK293SFM cells, 10 nM 3H-Histamine, 1.5 hr at room temperature.
T1 construct: expressed in transfected cells; host or cells: HEK293SFM cells (membrane preparation)
Outline: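 Radioligand is [3H]-histamine; 1000× unlabeled ligand sets nonspecific binding. Receptor source: membrane pellets from HEK293SFM cells carrying human H4 or other histamine subtypes (human H1–H3, mouse H4), in 50 mM Tris-HCl pH 7.5. Filtration through PEI-treated GF/B filters, then scintillation counting.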

Row | IC50 [nM] | Structure (SMILES)
1 | 34 | CN1CCN(c2cc(-c3ccc4c(c3)CN(C(=O)Cc3ccc(C#N)cc3)CC4)nc(N)n2)CC1 [Example 107, 4-{2-[7-[2-Amino-6-(4-methylpiperazin-1-yl)pyrimidin-4-yl]-3,4-dihydroisoquinolin-2(1H)-yl]-2-oxoethyl}benzonitrile]
2 | 59 | CC(C)Oc1ccc(C[C@H](NC(=O)c2ccc3c(N4CCN(C)CC4)nc(N)nc3c2)C(=O)N(C)C)cc1 [Example 136, (S)-2-amino-N-(1-(dimethylamino)-3-(4-isopropoxyphenyl)-1-oxopropan-2-yl)-4-(4-methylpiperazin-1-yl)quinazoline-7-carboxamide]
3 | 364 | CN1CCN(c2cc(-c3ccc4c(c3)CN(C(=O)OC3CCOC3)CC4)nc(N)n2)CC1 (stereo not drawn) [Example 79, Tetrahydrofuran-3-yl 7-[2-amino-6-(4-methylpiperazin-1-yl)pyrimidin-4-yl]-3,4-dihydroisoquinoline-2(1H)-carboxylate]
4 | 56 | Cc1ccnc(Oc2cccc(CNC(=O)c3ccc4c(N5CCN(C)CC5)nc(N)nc4c3)c2)c1 [Example 182, 2-Amino-4-(4-methylpiperazin-1-yl)-N-{3-[(4-methylpyridin-2-yl)oxy]benzyl}quinazoline-7-carboxamide]
5 | 57 | CCO[C@H]1CCCC[C@H]1NC(=O)N1CCc2ccc(-c3cc(N4CCN(C)CC4)nc(N)n3)cc2C1 (relative stereo) [Example 85, 7-[2-Amino-6-(4-methylpiperazin-1-yl)pyrimidin-4-yl]-N-[(cis)-2-ethoxycyclohexyl]-3,4-dihydroisoquinoline-2(1H)-carboxamide]
6 | 44 | CN1CCN(c2nc(N)nc3cc(C(=O)NC(Cc4ccc(C(F)(F)F)cc4)C(=O)N(C)C)ccc23)CC1 (stereo not drawn) [Example 150, 2-Amino-N-{2-(dimethylamino)-2-oxo-1-[4-(trifluoromethyl)benzyl]ethyl}-4-(4-methylpiperazin-1-yl)quinazoline-7-carboxamide]
7 | 42 | COC(=O)[C@H](Cc1ccc(-c2cnn(C)c2)cc1)NC(=O)c1ccc2c(N3CCN(C)CC3)nc(N)nc2c1 [Example 140, Methyl (2S)-2-({[2-amino-4-(4-methylpiperazin-1-yl)quinazolin-7yl]carbonyl}amino)-3-[4-(1-methyl-1H-pyrazol-4-yl)phenyl]propanoate]
8 | 36 | COC(=O)c1cccc(COc2cccc3c2CCN(C(=O)c2ccc4c(N5CCN(C)CC5)nc(N)nc4c2)C3)c1 [Example 209, Methyl 3-((2-(2-amino-4-(4-methylpiperazin-1-yl)quinazoline-7-carbonyl)-1,2,3,4-tetrahydroisoquinolin-5-yloxy)methyl)benzoate]
9 | 51 | CC(Oc1cccc(CC(NC(=O)c2ccc3c(N4CCN(C)CC4)nc(N)nc3c2)C(=O)N(C)C)c1)c1cccc(C(F)(F)F)c1 (stereo not drawn) [Example 176, 2-Amino-N-[2-(dimethylamino)-2-oxo-1-(3-{1-[3-(trifluoromethyl)phenyl]ethoxy}benzyl)ethyl]-4-(4-methylpiperazin-1-yl)quinazoline-7-carboxamide]
10 | 81 | CN1CCN(c2cc(-c3ccc4c(c3)CN(C(=O)C3CCCCC3)CC4)nc(N)n2)CC1 [Example 105, 4-[2-(Cyclohexylcarbonyl)-1,2,3,4-tetrahydroisoquinolin-7-yl]-6-(4-methylpiperazin-1-yl)pyrimidin-2-amine]
11 | 20 | COC(=O)c1ccccc1Oc1cccc(CNC(=O)c2ccc3c(N4CCN(C)CC4)nc(N)nc3c2)c1 [Example 191, Methyl 2-{3-[({[2-amino-4-(4-methylpiperazin-1-yl)quinazolin-7-yl]carbonyl}amino)methyl]phenoxy}benzoate]
12 | 57.2 | CC(C)NC(=O)N1CCc2ccc(-c3cc(N4CCN(C)CC4)nc(N)n3)cc2C1 [Example 13, 7-[2-Amino-6-(4-methylpiperazin-1-yl)pyrimidin-4-yl]-N-isopropyl-3,4-dihydroisoquinoline-2(1H)-carboxamide]
13 | 69 | CN1CCN(c2cc(-c3ccc4c(c3)CN(C(=O)CC3CC3)CC4)nc(N)n2)CC1 [Example 106, 4-[2-(Cyclopropylacetyl)-1,2,3,4-tetrahydroisoquinolin-7-yl]-6-(4-methylpiperazin-1-yl)pyrimidin-2-amine]
14 | 565 | CC(NC(=O)c1ccc2c(N3CCN(C)CC3)nc(N)nc2c1)c1ccccc1 (stereo not drawn) [Example 24, 2-Amino-4-(4-methylpiperazin-1-yl)-N-(1-phenylethyl)quinazoline-7-carboxamide]
15 | 52 | CN1CCN(c2cc(-c3ccc4c(c3)CN(C(=O)Nc3ccc(Oc5ccccc5)cc3)CC4)nc(N)n2)CC1 [Example 96, 7-[2-Amino-6-(4-methylpiperazin-1-yl)pyrimidin-4-yl]-N-(4-phenoxyphenyl)-3,4-dihydroisoquinoline-2(1H)-carboxamide]
16 | 39 | CN1CCN(c2cc(-c3ccc4c(c3)CN(c3ccc(C#N)c(F)c3)CC4)nc(N)n2)CC1 [Example 15, 4-{7-[2-Amino-6-(4-methylpiperazin-1-yl)pyrimidin-4-yl]-3,4-dihydroisoquinolin-2(1H)-yl}-2-fluorobenzonitrile]
17 | 34 | CN1CCN(c2cc(-c3ccc4c(c3)CN(c3ccc(-c5ccc(C#N)cc5)cn3)CC4)nc(N)n2)CC1 [Example 18, 4-{6-[7-[2-Amino-6-(4-methylpiperazin-1-yl)pyrimidin-4-yl]-3,4-dihydroisoquinolin-2(1H)-yl]pyridin-3-yl}benzonitrile]
18 | 106 | CN1CCN(c2nc(N)nc3cc(C(=O)NCc4ccc(Oc5ccccc5)cc4)ccc23)CC1 [Example 34, 2-Amino-4-(4-methylpiperazin-1-yl)-N-(4-phenoxybenzyl)quinazoline-7-carboxamide]
19 | 41 | CN1CCN(c2nc(N)nc3cc(C(=O)N4CCc5c(cccc5OCc5ccc(C#N)cc5)C4)ccc23)CC1 [Example 210, 4-((2-(2-Amino-4-(4-methylpiperazin-1-yl)quinazoline-7-carbonyl)-1,2,3,4-tetrahydroisoquinolin-5-yloxy)methyl)benzonitrile]
20 | 357 | CN1CCN(c2cc(-c3ccc4c(c3)CN(C(=O)CC3CCN(C(=O)c5ccccc5)CC3)CC4)nc(N)n2)CC1 [Example 73, 4-{2-[(1-Benzoylpiperidin-4-yl)acetyl]-1,2,3,4-tetrahydroisoquinolin-7-yl}-6-(4-methylpiperazin-1-yl)pyrimidin-2-amine]
21 | 199 | CNC(=O)c1ccc(N2CCc3ccc(-c4cc(N5CCN(C)CC5)nc(N)n4)cc3C2)cn1 [Example 17, 5-{7-[2-Amino-6-(4-methylpiperazin-1-yl)pyrimidin-4-yl]-3,4-dihydroisoquinolin-2(1H)-yl}-N-methylpyridine-2-carboxamide]
22 | 49 | CN1CCN(c2cc(-c3ccc4c(c3)CN(C(=O)N[C@@H]3CCCC[C@@H]3OCC3CC3)CC4)nc(N)n2)CC1 (relative stereo) [Example 86]
23 | 337 | CN1CCN(c2cc(-c3ccc4c(c3)CN(C(=O)Cn3cccn3)CC4)nc(N)n2)CC1 [Example 112, 4-(4-Methylpiperazin-1-yl)-6-[2-(1H-pyrazol-1-ylacetyl)-1,2,3,4-tetrahydroisoquinolin-7-yl]pyrimidin-2-amine]
24 | 36 | CN1CCN(c2cc(-c3ccc4c(c3)CN(C(=O)CC(C#N)c3ccccc3)CC4)nc(N)n2)CC1 (stereo not drawn) [Example 124, 4-[7-[2-Amino-6-(4-methylpiperazin-1-yl)pyrimidin-4-yl]-3,4-dihydroisoquinolin-2(1H)-yl]-4-oxo-2-phenylbutanenitrile]
